What is called IC50 is the midpoint of a concentration-inhibition curve. Lower therefore signals greater potency in that assay.

Series [1] in a line: Solubility determination in oil (cottonseed oil, sesame oil). Conditions: Sesame oil; for Solubility by volumetric flask method: Sesame oil: heating 60 °C, obs. 25 °C. On the procedure:
A known amount of test substance (˜40 mg) was weighed into the vial, 100 μL of oil was added and heated to 60° C. and then system was slurried to reach equilibrium. […] Extra oil was added into the vial once compound precipitated out and then the system was re-equilibrated at 1000 rpm at room temperature (25° C.). Final concentration was determined by HPLC method as described below in Table 6a and 6b.

A short description of series [2]: Dog pharmacokinetic studies, deep intramuscular. The conditions noted are these: dog IM, 48 mg/kg, Sesame oil + 1% Benzyl Alcohol. It counts as in vivo, Beagle dogs. On the procedure: The purpose of this study is to determine the pharmacokinetics of test compounds in plasma, following deep intramuscular administration to Beagle dogs (n=3, unless otherwise specified).
(§1) The dose formulation (concentration−400 mg base equivalents/ml in sesame oil+1% benzyl alcohol, unless otherwise specified) was administered via deep intramuscularly (unless otherwise specified). The injection vehicle was also dosed via deep intramuscular route (unless otherwise specified) on contralateral site of each animal at study initiation. The animals were sedated with Propofol at 6 mg/kg via IV administration. Following sedation hair was carefully removed from around the injection site and the area gently cleaned. Care will be taken to avoid irritating skin during shaving and cleaning the injection site. Then dogs will be dosed with deep IM administration. At least 2.5 cm depth from the surface into the central aspect of the quadriceps or biceps femoris muscle, by angling the needle toward the femur. If the needle hits the femur, simply draws back slightly and then inject. The dose volume will be determined by the animals' body weight collected on the morning of dosing day. For repeated administration, the injection sites may be rotated to minimize tissue injury.
Blood samples were collected from a peripheral vessel from restrained, non-sedated animals per sampling time point.
Approximately 0.8 mL blood will be collected at each time point.
Each collected blood sample was centrifuged for 4 minutes at 4° C. and 10000 rpm for plasma collection. Plasma was collected and transferred into a pre-labeled PP tube in dry ice at each time point and precipitated immediately using ACN at a ratio of 1:4 (plasma:ACN). Centrifuged again (10 minutes, 12000 rpm) and obtain the supernatant.
After terminal collection, all supernatant was stored at approximately −80° C. F until bioanalysis.
LC-MS/MS methods for the quantitative determination of test compound in biological matrix were developed. […] The sample analysis was performed concurrently with a set of calibration standards and two sets of QC samples using the LC-MS/MS method.
Plasma concentration versus time data was analyzed by non-compartmental approaches using the Phoenix WinNonlin 6.3 software program. Cmax, Tmax, T1/2, AUC(0-t), AUC(0-inf), MRT(0-t), MRT(0-inf) and graphs of plasma concentration versus time profile were prepared.

The target of series [3] is T1, DOR (Homo sapiens, UniProt P41143).
T1 construct: expressed in transfected cells; membranes prepared from them
As to the kind of experiment: Opioid receptor binding assay, DOR ([3H]-DADLE). The conditions noted are these: for %Inh@MaxDose: DOR.

The nature of series [4]: Dog clinical observations after intramuscular dosing. It counts as in vivo, Beagle dogs. On the procedure: Weight monitoring was done every week.
as §1

For series [5], the target named is T2, KOR (Homo sapiens, UniProt P41145).
T2 construct: expressed in transfected cells; membranes prepared from them
Briefly: Opioid receptor binding assay, KOR ([3H]Diprenorphine). The conditions noted are these: KOR.

Series [6] concerns the target T3, MOR (Homo sapiens, UniProt P35372).
T3 construct: expressed in transfected cells; membranes prepared from them
As to the kind of experiment: Opioid receptor binding assay, MOR ([3H]DAMGO). Conditions: MOR.

T3 sequence (P35372 whole entry): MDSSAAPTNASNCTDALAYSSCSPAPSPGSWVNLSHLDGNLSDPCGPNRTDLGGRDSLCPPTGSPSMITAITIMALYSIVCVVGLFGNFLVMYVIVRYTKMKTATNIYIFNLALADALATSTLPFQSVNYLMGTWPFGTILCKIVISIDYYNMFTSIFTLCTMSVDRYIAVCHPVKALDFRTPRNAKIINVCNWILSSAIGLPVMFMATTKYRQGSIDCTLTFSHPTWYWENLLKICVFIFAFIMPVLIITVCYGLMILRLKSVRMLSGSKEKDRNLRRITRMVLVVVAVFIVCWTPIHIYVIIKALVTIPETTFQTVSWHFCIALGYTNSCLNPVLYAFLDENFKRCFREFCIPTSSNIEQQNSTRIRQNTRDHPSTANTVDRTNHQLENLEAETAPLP
T1 sequence (P41143 whole entry): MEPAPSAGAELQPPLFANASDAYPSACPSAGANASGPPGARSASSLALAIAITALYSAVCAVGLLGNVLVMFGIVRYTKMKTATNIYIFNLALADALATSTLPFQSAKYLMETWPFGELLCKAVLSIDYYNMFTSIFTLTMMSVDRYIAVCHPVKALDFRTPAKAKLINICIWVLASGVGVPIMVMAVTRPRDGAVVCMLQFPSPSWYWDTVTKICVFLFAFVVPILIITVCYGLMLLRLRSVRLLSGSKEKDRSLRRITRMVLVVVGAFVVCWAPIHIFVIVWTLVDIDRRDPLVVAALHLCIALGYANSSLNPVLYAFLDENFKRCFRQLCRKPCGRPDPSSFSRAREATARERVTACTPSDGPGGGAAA
T2 sequence (P41145 whole entry): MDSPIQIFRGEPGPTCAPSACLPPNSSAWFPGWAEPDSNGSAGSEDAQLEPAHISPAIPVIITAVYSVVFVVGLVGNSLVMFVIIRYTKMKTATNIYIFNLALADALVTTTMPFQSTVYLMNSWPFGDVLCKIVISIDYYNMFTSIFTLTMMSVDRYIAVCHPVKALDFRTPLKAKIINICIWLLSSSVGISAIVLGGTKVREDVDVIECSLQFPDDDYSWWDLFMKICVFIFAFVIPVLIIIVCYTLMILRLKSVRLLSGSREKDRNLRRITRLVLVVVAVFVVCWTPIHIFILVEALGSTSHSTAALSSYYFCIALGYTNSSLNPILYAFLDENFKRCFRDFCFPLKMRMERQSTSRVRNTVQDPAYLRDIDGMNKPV

Take `C=C1CC[C@@]2(O)C3Cc4ccc(OC(=O)OCCCCCCCCCCC)c5c4[C@@]2(CCN3CC2CC2)[C@H]1O5` [Compound 3, (4aS,7aS,12bS)-3-(cyclopropylmethyl)-4a-hydroxy-7-methylene-2,3,4,4a,5,6,7,7a-octahydro-1H-4,12-methanobenzofuro[3,2-e]isoquinolin-9-yl undecyl carbonate]: the “Solubility by volumetric flask method: Sesame oil” value in series [1] is over 400.7 mg/mL. Further, in series [2], the “AUC0-inf (ng · h/mL) prodrug” value is 360 ng·h/mL and the “Half-life t1/2 (hour) prodrug” value came out at 63.1 h.
For `CCCCCCCCCCCOC(=O)OCOc1ccc2c3c1O[C@H]1C(=O)CC[C@@]4(O)C(C2)N(CC2CC2)CC[C@]314` [Compound 4, (((4aS,7aR,12bS)-3-(cyclopropylmethyl)-4a-hydroxy-7-oxo-2,3,4,4a,5,6,7,7a-octahydro-1H-4,12-methanobenzofuro[3,2-e]isoquinolin-9-yl)oxy)methyl undecyl carbonate], the “Solubility by volumetric flask method: Sesame oil” value in series [1] is over 400.4 mg/mL. Moreover, the “AUC0-inf (ng · h/mL) prodrug” value in series [2] was determined as 829 ng·h/mL. For the same molecule, the IC50 in series [3] is over 10 µM. Besides, the “%Inh@MaxDose” value in series [3] (MaxDose 10000 nM) came to 43.2%.
Consider `C=C1CC[C@@]2(O)C3Cc4ccc(OCOC(=O)OCCCCCCCCCCC)c5c4[C@@]2(CCN3CC2CC2)[C@H]1O5` [Compound 5, (((4aS,7aS,12bS)-3-(cyclopropylmethyl)-4a-hydroxy-7-methylene-2,3,4,4a,5,6,7,7a-octahydro-1H-4,12-methanobenzofuro[3,2-e]isoquinolin-9-yl)oxy)methyl undecyl carbonate], for which the “Solubility by volumetric flask method: Sesame oil” value in series [1] is recorded as over 400.6 mg/mL. In addition, the “BT (clinical observations, R-TA)” value in series [4] (dog D1001, 48 mg/kg, 264 hr) is “BT:38.6 °C”; in series [4] (dog D1001, 48 mg/kg, 288 hr) it was “BT:38.6 °C”; in series [4] (dog D1001, 48 mg/kg, 312 hr) it was “BT:38.0 °C”; in series [4] (dog D1001, 48 mg/kg, 336 hr), “BT:38.4 °C”; in series [4] (dog D1001, 48 mg/kg, 360 hr), “BT:38.1 °C”; in series [4] (dog D1001, 48 mg/kg, 432 hr), “BT:38.0 °C”. In addition, the “BT (clinical observations, R-TA)” value in series [4] (dog D1001, 48 mg/kg, 480 hr) was “BT:38.0 °C”; in series [4] (dog D1001, 48 mg/kg, 528 hr), “BT38.2 °C”; in series [4] (dog D1001, 48 mg/kg, 552 hr), “BT:38.4 °C”; in series [4] (dog D1001, 48 mg/kg, 576 hr), “BT:38.4 °C”; in series [4] (dog D1001, 48 mg/kg, 600 hr), “BT:38.3 °C”; in series [4] (dog D1001, 48 mg/kg, 624 hr) it was “BT:38.6 °C”. For the same molecule, the “BT (clinical observations, R-TA)” value in series [4] (dog D1001, 48 mg/kg, 648 hr) is “BT:38.3 °C”; in series [4] (dog D1001, 48 mg/kg, 672 hr) it was “BT:38.3 °C”; in series [4] (dog D1001, 48 mg/kg, […]), “BT:38.7 °C”; in series [4] (dog D1002, 48 mg/kg, 264 hr), “BT:39.5 °C”; in series [4] (dog D1002, 48 mg/kg, 288 hr), “BT:39.5 °C”; in series [4] (dog D1002, 48 mg/kg, 312 hr), “BT:38.5 °C”. Also, the “BT (clinical observations, R-TA)” value in series [4] (dog D1002, 48 mg/kg, 336 hr) is “BT:38.7 °C”; in series [4] (dog D1002, 48 mg/kg, 360 hr), “BT:39.1 °C”; in series [4] (dog D1002, 48 mg/kg, 432 hr) it was “BT:38.9 °C”; in series [4] (dog D1002, 48 mg/kg, 456 hr), “BT:38.9 °C”; in series [4] (dog D1002, 48 mg/kg, 480 hr), “BT:39.2 °C”; in series [4] (dog D1002, 48 mg/kg, 504 hr), “BT:38.7 °C”. Also, the “BT (clinical observations, R-TA)” value is “BT:37.9 °C” in series [4] (dog D1002, 48 mg/kg, 528 hr); “BT:39.2 °C” in series [4] (dog D1002, 48 mg/kg, 552 hr); “BT:39.0 °C” in series [4] (dog D1002, 48 mg/kg, 576 hr); “BT:38.6 °C” in series [4] (dog D1002, 48 mg/kg, 600 hr); “BT:38.9 °C” in series [4] (dog D1002, 48 mg/kg, 624 hr); “BT:38.5 °C” in series [4] (dog D1002, 48 mg/kg, 648 hr). The “BT (clinical observations, R-TA)” value in series [4] (dog D1002, 48 mg/kg, 672 hr) is “BT:39.3 °C”. Also, the “AUC0-inf (ng · h/mL) prodrug” value in series [2] was determined as 3869 ng·h/mL. In addition, the “Half-life t1/2 (hour) prodrug” value in series [2] was determined as 70.9 h.
In the case of `C=C1CC[C@@]2(O)C3Cc4ccc(OC(=O)OCCCCCCCCCCCCCCC)c5c4[C@@]2(CCN3CC2CC2)[C@H]1O5` [Compound 32, (4aS,7aS,12bS)-3-(cyclopropylmethyl)-4a-hydroxy-7-methylene-2,3,4,4a,5,6,7,7a-octahydro-1H-4,12-methanobenzofuro[3,2-e]isoquinolin-9-yl pentadecyl carbonate], the “Approximate Solubility (mg/mL) in Excipient: Sesame oil” value in series [1] (heating temp. 60 °C, obs. temp. 25 °C) is on record as over 410 mg/mL. In addition, the “%Inh@MaxDose” value in series [5] (MaxDose 10000 nM) is 80.1%; in series [6] (MaxDose 10000 nM), 75.9%.
On to `C=C1CC[C@@]2(O)C3Cc4ccc(OCOC(=O)OCCCCCCCCCCCCCCCC)c5c4[C@@]2(CCN3CC2CC2)[C@H]1O5` [Compound 34, (((4aS,7aS,12bS)-3-(cyclopropylmethyl)-4a-hydroxy-7-methylene-2,3,4,4a,5,6,7,7a-octahydro-1H-4,12-methanobenzofuro[3,2-e]isoquinolin-9-yl)oxy)methyl hexadecyl carbonate], for which the “%Inh@MaxDose” value in series [3] (MaxDose 10000 nM) is reported as 22.7%.
`C=C1CC[C@@]2(O)C3Cc4ccc(OCOC(=O)CCCCCCCCCCC)c5c4[C@@]2(CCN3CC2CC2)[C@H]1O5` [Compound 44, (((4aS,7aS,12bS)-3-(cyclopropylmethyl)-4a-hydroxy-7-methylene-2,3,4,4a,5,6,7,7a-octahydro-1H-4,12-methanobenzofuro[3,2-e]isoquinolin-9-yl)oxy)methyl dodecanoate]: the figures for the “%Inh@MaxDose” value in series [5] (MaxDose 10000 nM), in series [6] (MaxDose 10000 nM) and in series [3] (MaxDose 10000 nM) were 99.2%, 83.1% and 79.1%, respectively.
The matching figures for `C=C1CC[C@@]2(O)C3Cc4ccc(OCOC(=O)CCCCCCCCCCCCCCC)c5c4[C@@]2(CCN3CC2CC2)[C@H]1O5` [Compound 46, (((4aS,7aS,12bS)-3-(cyclopropylmethyl)-4a-hydroxy-7-methylene-2,3,4,4a,5,6,7,7a-octahydro-1H-4,12-methanobenzofuro[3,2-e]isoquinolin-9-yl)oxy)methyl hexadecanoate]: 101.8%, 102.3% and 72.3%.
As to `Oc1ccc2c3c1O[C@H]1c4[nH]c5ccccc5c4C[C@@]4(O)[C@@H](C2)N(CC2CC2)CC[C@]314` [Naltrindole, reference compound], the “%Inh@MaxDose” value in series [3] (MaxDose 100 nM) is 98.8%.
Take `C=C1CC[C@@]2(O)[C@H]3Cc4ccc(O)c5c4[C@@]2(CCN3CC2CC2)[C@H]1O5` [nalmefene, 17-cyclopropylmethyl-4,5α-epoxy-6-methylenemorphinan-3,14-diol, reference compound]: the “%Inh@MaxDose” value in series [5] (MaxDose 1000 nM) was found to be 103%; in series [6] (MaxDose 1000 nM), 103.5%; in series [3] (MaxDose 1000 nM), 94.5%.

The record behind these values is patent US10525055B2, “Opioid receptor antagonist prodrugs” (Nirsum Laboratories, Inc., priority 2017, dated 2020).
